According to EP2179993A1, “Sulfoxide substituted aniline pyrimidine derivatives as CDK inhibitors, their manufacture and use as medicine” (Bayer Schering Pharma Aktiengesellschaft, priority 2008, dated 2010):
pIC50: −log10 of the molar value.

Columns and labels:
CDK1/CycB = target: T1, CDK1/CycB (Homo sapiens, UniProt P06493); experiment: CDK1/CycB kinase assay (33P-ATP incorporation into histone IIIS, filter strip scintillation); type: biochemical; conditions: recombinant CDK1- and CycB-GST fusion proteins; 0,5 µM ATP; 10 min at 22°C; substrate Histon IIIS; read-out: CDK1/CycB (Assay 1) Konzentration der halbmaximalen Inhibition der Enzymaktivität, IC50
T1 construct: GST; purchased ProQinase GmbH, Freiburg; host or cells: baculovirus-infected Sf9 insect cells
T1 sequence (P06493 whole entry, the tested form may be a part): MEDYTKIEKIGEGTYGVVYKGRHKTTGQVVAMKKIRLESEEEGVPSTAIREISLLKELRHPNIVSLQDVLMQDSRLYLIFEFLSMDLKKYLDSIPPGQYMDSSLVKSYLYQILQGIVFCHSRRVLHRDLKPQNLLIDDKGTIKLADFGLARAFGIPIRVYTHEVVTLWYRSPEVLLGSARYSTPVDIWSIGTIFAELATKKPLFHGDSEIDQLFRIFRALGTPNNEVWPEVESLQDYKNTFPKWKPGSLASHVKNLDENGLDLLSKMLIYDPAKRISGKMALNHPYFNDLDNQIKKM
T1 sequence (P14635 whole entry partner, the tested form may be a part): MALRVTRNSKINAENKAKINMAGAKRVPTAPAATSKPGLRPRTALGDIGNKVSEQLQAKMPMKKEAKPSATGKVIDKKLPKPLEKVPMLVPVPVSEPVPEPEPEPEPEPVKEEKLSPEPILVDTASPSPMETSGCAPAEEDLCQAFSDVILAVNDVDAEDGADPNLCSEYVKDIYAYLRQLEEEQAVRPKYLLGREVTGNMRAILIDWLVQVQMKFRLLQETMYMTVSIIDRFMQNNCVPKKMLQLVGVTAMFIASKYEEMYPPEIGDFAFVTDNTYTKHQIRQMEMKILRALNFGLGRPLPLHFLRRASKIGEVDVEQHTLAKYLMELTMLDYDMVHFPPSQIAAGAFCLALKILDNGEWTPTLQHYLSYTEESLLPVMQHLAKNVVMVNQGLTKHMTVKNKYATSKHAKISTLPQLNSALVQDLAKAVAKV
Experimental: Assay 1: CDK1/CycB Kinase Assay
Rekombinante CDK1- und CycB-GST-Fusionsproteine, gereinigt aus Bakulovirusinfizierten Insektenzellen (Sf9), wurden von ProQinase GmbH, Freiburg, gekauft. Das als Kinase-Substrat verwendet Histon IIIS ist über die Fa. Sigma käuflich zu erwerben.
(§1) CDK1/CycB (200 ng/Messpunkt) wurde für 10 min bei 22°C in Anwesenheit verschiedener Konzentrationen an Testsubstanzen (0 µM, sowie innerhalb des Bereiches 0,001 - 10 µM) in Assaypuffer [50 mM Tris/HCl pH8,0; 10 mM MgCl2; 0,1 mM Na ortho-Vanadat; 1,0 mM Dithiothreitol; 0,5 µM Adenosintrisphosphat (ATP); 10 µg/Messpunkt Histon IIIS; 0,2 µCi/Messpunkt ^33P-gamma ATP; 0,05% NP40; 1,25% Dimethylsulfoxid] inkubiert. Die Reaktion wurde durch Zugabe von EDTA-Lösung (250 mM; pH8,0; 15 µl/Messpunkt) gestoppt.
(§2) Von jedem Reaktionsansatz wurden 15 µl auf P30 Filterstreifen (Fa. Wallac) aufgetragen, und nicht-eingebautes ^33P-ATP wurde durch dreimaliges Waschen der Filterstreifen für je 10 min in 0,5%iger Phosphorsäure entfernt. Nach dem Trocknen der Filterstreifen für 1 Stunde bei 70°C wurden die Filterstreifen mit Szintillator-Streifen (MeltiLex™ A, Fa. Wallac) bedeckt und für 1 Stunde bei 90°C eingebrannt. Die Menge an eingebautem ^33P (Substratphosphorylierung) wurde durch Szintillationsmessung in einem Gamma-Strahlungsmessgerät (Wallac) bestimmt. […]

CDK2/CycE = target: T2, CDK2/CycE (Homo sapiens, UniProt P24941); experiment: CDK2/CycE kinase assay (33P-ATP incorporation into histone IIIS, filter strip scintillation); type: biochemical; conditions: recombinant CDK2- and CycE-GST fusion proteins; 0,5 µM ATP; 10 min at 22°C; substrate Histon IIIS; read-out: CDK2/CycE (Assay 2) Konzentration der halbmaximalen Inhibition der Enzymaktivität, IC50
T2 construct: GST; purchased ProQinase GmbH, Freiburg; host or cells: baculovirus-infected Sf9 insect cells
Experimental: Assay 2: CDK2/CycE Kinase Assay
Rekombinante CDK2- und CycE-GST-Fusionsproteine, gereinigt aus Bakulovirusinfizierten Insektenzellen (Sf9), wurden von ProQinase GmbH, Freiburg, gekauft. Histon IIIS, das als Kinase-Substrat verwendet wurde, wurde bei der Fa. Sigma gekauft.
as §1, with “CDK2/CycE (50” for “CDK1/CycB (200”
as §2, with “(MeItiLex™” for “(MeltiLex™”

| pIC50 (CDK1/CycB) | pIC50 (CDK2/CycE) | SMILES |
| --- | --- | --- |
| 8.15 | 8.30 | C[C@@H](O)[C@@H](C)Oc1nc(Nc2ccc([S+](C)[O-])cc2)ncc1C(F)(F)F (stereo partly drawn) [Beispiel 1, (2R,3R)-3-[2-(4-Methansulfinyl-phenylamino)-5-trifluormethyl-pyrimidin-4-yloxy]-butan-2-ol] |
| 7.52 | 7.92 | C[C@@H](Oc1nc(Nc2ccc([S+](C)[O-])cc2)ncc1C(F)(F)F)C(C)(C)O (stereo partly drawn) [Beispiel 2, (R)-3-[2-(4-Methansulfinyl-phenylamino)-5-trifluormethyl-pyrimidin-4-yloxy]-2-methyl-butan-2-ol] |
